Seven molecules from patent EP0334956A1, “HEMOLYSIS INHIBITOR AND MEDICAL RESIN COMPOSITION, MEDICAL IMPLEMENT, AND BLOOD-PRESERVING FLUID CONTAINING THE SAME” (KAO CORPORATION, priority 1986, dated 1988) can be followed below.

Assay [1] relates to human concentrated red cells. In words: Hemolysis of stored CRC, reagent added as Tween 80/physiological saline emulsion; plasma hemoglobin by TMB method. The assay is classed as cell-based. As to conditions: for hemolysis depressing capacity (in words): summary of Tables 1 through 6 (emulsion and direct addition); for Hemoglobin concentration in plasma: Table 1, emulsion, 4°C, 4 weeks. Here is the method:
Isopropyl isotridecyl maleate was added to a 2000ug/ml polyoxyethylene monooleate (reagent-grade product of Wako Junyaku K.K. marketed under trademark designation of "Tween 80")/physiological saline mixed solution in such an amount to be contained therein in a final concentration of 4mM. A 0.2ml aliquot of the resultant emulsion was added to a human concentrated red cells (hereinafter referred to as "CRC") adjusted in advance to a hematocrit value of about 70% so as to be contained therein in a final concentration indicated in Table 1. The resulting liquid was placed in a stoppered polypropylene tube and left standing at rest at 4°C for 4 weeks. At the end of this standing, it was tested for plasma hemoglobin concentration by the TMB method (Clin. Chem., 23, 749-(1977)).
An emulsion was prepared by following the procedure of Example 1, except that isopropyl decyl maleate was used in place of isopropyl-isotridecyl maleate. A CRC sample incorporating the emulsion was left standing and thereafter tested for plasma hemoglobin concentration.
Emulsions were prepared by following the procedure of Excample 1, except that di-2-ethylhexyl phthalate (Control 1) and diisopropyl maleate, a carboxylic ester compound deviating from the scope of the present invention (Control 2) were respectively used in place of isopropyl isotridecyl maleate. CRC samples severally incorporating the emulsions were left standing and, thereafter, tested for plasma hemoglobin concentration.
Glycerine-l-butyl-3-isostearyl ether was added to a 2000 ug/ml polyoxyethylene monooleate (regent-grade product of Wako Junyaku K.K. marketed under trademark designation of "Tween 80")/ physiological saline mixed solution so as to be contained therein in a final concentration of 4 mM. A 0.2ml aliquot of the resultant emulsion was added to CRC adjusted in advance to a hematocrit value of about 70% so as to be contained therein in a final concentration indicated in Table 3. The resultant liquid was placed in a stoppered polypropylene tube and left standing at 4°C for 4 weeks. Thereafter, it was tested for plasma hemoglobin concentration by following the procedure of Example 1.
An emulsion was prepared by following the procedure of Example 5, except that glycerine-1,3-dioctyl ether was used in place of glycerine- l-butyl-3-isostearyl ether. A CRC sample incorporating the resultant emulsion was left standing and, thereafter, tested for plasma hemoglobin concentration. Controls 7 and 8
Emulsions were prepared by following the procedure of Example 5, except that di-2-ethylhexyl phthalate (Control 7) and glycerine monooctyl ether, an ether compound deviating from the scope of the present invention, (Control 8) were respectively used in place of glycerine-l-butyl-3-isostearyl ether. CRC samples incorporating the emulsions were left standing and, thereafter, tested for plasma hemoglobin concentration.
Isopropyl isolaurate was dispersed in a 2000 ug/ml poloxyethylene monooleate (reagent-grade product of Wako Junyaku K.K. marketed under trademark designation of "Tween 80")/physiological saline mixed solution so as to be contained therein in a concentration of 4 mM. A 0.2-ml aliquot of the resultant emulsion was added to CRC adjusted in advance to a hematocrit value of about 70% so as to be contained therein in a final concentration indicated in Table 5. The resultant liquid was placed in a stoppered polypropylene tube and left standing at 4°C for 4 weeks. Thereafter, it was tested for plasma hemoglobin concentration by following the procedure of Example 1.
An emulsion was prepared by following the procedure of Example 9, except that 2-ethylhexyl isostearate was used in place of isopropyl isolaurate. A CRC sample incorporating the resultant emulsion was left standing and, thereafter, tested for plasma hemoglobin concentration.

Assay [2] has as its system human platelet rich plasma. The experiment in a line: Platelet aggregation in platelet rich plasma (Aggrecoder). As to conditions: 40 mM methanol solution added in 1/100, room temperature 2 hours, relative to blank; for Ratio of platelet aggregation: 400 µM; for activity at 400 µM: Homo sapiens, Platelet, 2 h, read-out: Ratio of platelet aggregation. The assay is classed as cell-based. How it is done: A 40 mM methanol solution of isopropyl isotridecyl maleate (Example 13), a 40 mM methanol solution of glycerine-l-butyl-3-isostearyl ether (Example 14), a 40 mM methanol solution of isopropyl isolaurate (Example 15), a 40 mM methanol solution of di-2-ethylhexyl phthalate (Control 19) and methanol containing no added compound (Control 20) were severally added to a human platelet rich plasma (count of platelets about 300,000/mm ) in a fixed amount of 1/100, left standing at room temperature for 2 hours, and tested for platelet aggregation by the use of an instrument (product of Kyoto Daiichikagaku K.K. marketed under "Aggrecoder").
The percentage of transmittance of light through the solution of platelet rich plasma containing a given sample to the maximum transmittance of light through the same solution of platelet rich plasma not containing the sample (blank) was reported as the ratio of aggregation of the sample. As aggregation inducers, 5 µM ADP (adenosine diphosphoric acid) and 5 ug/ml collagen were used.

In assay [3] the test system is concentrated human red cells. In words: Hemolysis of CRC stored with blood preserving liquid (SAG solution/Tween 80 emulsion). As to conditions: 4°C, 5 weeks. The assay is classed as cell-based. How it is done: An emulsion was produced by dissolving Tween 80 (reagent grade produced by Wako Junyaku K.K.) in a SAG solution (containing 140 mM of NaCl, 1.25 mM of adenine and 50 mM of glucose) so as to be contained therein in a concentration of 600 µg/ml adding 12 mM isopropyl isotridecyl maleate to the resultant solution, and stirring the resultant mixture for uniform dispersion. In a stoppered polypropylene tube, a mixture of 1.0 ml of the emulsion prepared as described above and 2.0 ml of a liquid of concentrated human red cells adjusted in advance to a hematocrit value of about 70% was left standing at 4°C for 5 weeks. The resultant liquid was tested for free hemoglobin concentration in plasma by following the procedure of Example 1.
An emulsion was prepared by dissolving Tween 80 (reagent grade product of Wako Junyaku K.K.) in a SAG liquid so as to be contained therein in a concentration of 600 µg/ml, adding 12 mM of glycerine-l-butyl-3-isostearyl ether and stirring the resultant mixture for 'uniform dispersion. In a stoppered polypropylene tube, a mixture of 1.0 ml of the emulsion prepared as described above and 2.0 ml of CRC adjusted in advance to a hematocrit value of about 70% was left stnading at 4°C for 5 weeks. At the end of this standing, the CRC liqud was tested for change of free hemoglobin concentration in plasma by following the procedure of Example 1.
An emulsion was prepared by dissolving Tween 80 (reagent grade product of Wako Junyaku K.K.) in a SAG liquid so as to be contained therein in a concentration of 600 ug/ml, adding 12 mM of isopropyl isolaurate to the resultant solution, and stirring the resultant mixture for uniform dispersion. In a stoppered polypropylene tube, a mixture of 1.0 ml of the emulsion prepared as described above and 2.0 ml of CRC adjusted in advance to a hematocrit value of about 70% and then left standing at 4°C for 5 weeks. At the end of the satnding, the liquid was tested for free hemoglobin concentraiton in plasma by following the procedure of Example 1. The results are shown in Talbe 24.

The next assay relates to CRC. The experiment in a line: Hemolysis of stored CRC, reagent added directly to CRC; plasma hemoglobin by TMB method. The assay is classed as cell-based, human. Further details: unit not given here. The following applies: Table 2, direct addition, 4°C, 4 weeks. How it is done:
Isopropyl isotridecyl maleate was added to CRC adjusted in advance to a hematocrit value of about 70% so as to be contained threrein in a final concentration indicated in Table 2 and stirred gently. The resultant liquid was placed in a stoppered polypropylene tube and left standing at rest at 4°C for 4 weeks, while subjecting to gentle stirring per a week. Thereafter, it was tested for plasma hemoglobin concentration by following the procedure of Example 1.
By following the procedrue of Example 3, isopropyl decyl maleate was added to CRC in the place of isopropyl isotridecyl maleate. The resultant liquid was left standing and, thereafter, tested for plasma hemoglobin concentration.
CRC samples were obtained by following the procedure of Example 3, except that di-2-ethylhexyl phthalate (Control 4) and diisopropyl maleate, a carboxylic ester compound deviating from the scope of this invention, (Control 5) were respectively used in place of isopropyl isotridecyl maleate. The resultant liquids were left standing and, thereafter, tested for plasma hemoglobin concentration.
Glycerine-l-butyl-isostearyl ether was added to CRC adjusted in advance to a hematocrit value of about 70% so as to be contained therein in a final concentration indicated in Table 4 and stirred gently. The resultant liquid was placed in a stoppered polypropylene tube and left standing at 4°C for 4 weeks, while subjecting to gentle stirring per a week. Thereafter, it was tested for plasma hemoglobin concentration by following the procedure of Example 1.
A CRC sample was prepared by following the procedure of Example 7, except that glycerine-1,3-dioctyl ether was used in place of glycerine-1-butyl 3-isostearyl ether. The resultant liquid was left standing and, thereafter, tested for plasma hemoglobin concentration.
Emulsions were prepared by following the procedure of Example 7, excepting di-2-ethylhexyl phthalate (Control 10) and glycerine monooctyl ether, an ether compound deviating from the scope of the present invention, (Control 11) were respectively used in the place of glycerine-l-butyl-3-isostearyl ether. CRC samples incorporating the emulsions were left standing and, thereafter, tested for plasma hemoglobin concetnration.
Isopropyl isolaurate was added to CRC adjusted in advance to a hematocrit value of about 70% so as to be contained therein in a final concentration indicated in Table 4 and stirred gently. The resultant liquid was place in a stoppered polypropylene tube and left standing at 4°C for 4 weeks, while subjecting to gentle stirring par a week. Thereafter, it was tested for plasma hemoglobin concentration by following the procedure of Example 1.
An emulsion was prepared by following the procedrue of Example 11, except that 2-ethylhexyl isostearate was used in place of isopropyl isolaurate. A CRC sample incorporating the resultant emulsion was left standing and, thereafter, tested for plasma hemoglobin concentration.
Emulsions were prepared by following the procedure of Example 11, except that di-2-ethylhexyl phthalate (Control 16) and ethyl-2-ethylhexanoate, a monocarboxylic ester compound deviating from the scope of the present invention, (Control 17) were respectively used in place of isopropyl isolaurate. CRC samples incorporating the resultant emulsions therein were left standing and, thereafter, tested for plasma hemoglobin concentraiton.

Setting [4] is: aggregation inducer 5 µg/ml collagen.

Where a name gives a salt, the structure may show the parent alone. Read-outs that look alike come from different tables or passages of the source.

Take `CCCCC(CC)C(=O)OCC` (stereo not shown) [Ethyl-2-ethylhexanoate, reference compound]: in assay [1], the “hemolysis depressing capacity (in words)” value is given as “possessed virtually no ability to prevent hemolysis or conversely caused hemolysis”.
For the molecule `CC(C)CCCCCCCCC(=O)OC(C)C` [Isopropyl isolaurate], the “Ratio of platelet aggregation” value in assay [2] (aggregation inducer 5 µM ADP) was found to be 99.3%; in assay [2] (setting [4]) it was 101.6%. Besides, the “Concentration of Free Hemoglobin in Plasma” value in assay [3] (Table 24, final concentration of the additive in CRC 0.4 mM) is 86 mg/dL; in assay [3] (Table 24, final concentration of the additive in CRC 4.0 mM), 230 mg/dL.
`CCCCCCCCOCC(O)CO` (stereo not shown) [Glycerine monooctyl ether, reference compound]: the “hemolysis depressing capacity (in words)” value in assay [1] is given as “possessed virtually no ability to prevent hemolysis or conversely caused hemolysis”.
Consider `CCCCCCCCCCOC(=O)/C=C\C(=O)OC(C)C` [Isopropyl decyl maleate], for which the “Hemoglobin concentration in plasma” value is reported as 41 Mg/ml in assay [1] (final concentration 0.4 mM), 43 Mg/ml in assay [1] (final concentration 4.0 mM), 95 with CRC (final concentration 0.4 mM) and 99 in the assay with CRC (final concentration 4.0 mM).
In the case of `CC(C)OC(=O)/C=C\C(=O)OC(C)C` [Diisopropyl maleate, reference compound], the “Hemoglobin concentration in plasma” value is listed as 124 Mg/ml in assay [1] (final concentration 0.4 mM), 138 Mg/ml in assay [1] (final concentration 4.0 mM), 135 with CRC (final concentration 0.4 mM) and 160 in the assay on CRC (final concentration 4.0 mM). In assay [1], the “hemolysis depressing capacity (in words)” value is recorded as “possessed virtually no ability to prevent hemolysis or conversely caused hemolysis”.
In the case of Glycerine-1-butyl-3-isostearyl ether, the “Ratio of platelet aggregation” value stood at 101.0% in assay [2] (aggregation inducer 5 µM ADP) and 103.1% in assay [2] (setting [4]). Further, the “Concentration of Free Hemoglobin in Plasma” value turned out to be 71 mg/dL in assay [3] (Table 23, final concentration of the additive in CRC 0.4 mM) and 102 mg/dL in assay [3] (Table 23, final concentration of the additive in CRC 4.0 mM).
On to `CC(C)CCCCCCCCCCOC(=O)/C=C\C(=O)OC(C)C` [Isopropyl isotridecyl maleate], for which the figures for the activity at 400 µM in assay [2] (aggregation inducer 5 µM ADP) and in assay [2] (setting [4]) were 94.3% and 94.5%, respectively. The “Hemoglobin concentration in plasma” value in assay [1] (final concentration 0.4 mM) is given as 35 Mg/ml; in assay [1] (final concentration 4.0 mM) it was 33 Mg/ml; in the assay with CRC (final concentration 0.4 mM), 90; in the assay on CRC (final concentration 4.0 mM), 95.
